Patent US11401555B2, “Genetic polymorphisms associated with stroke, methods of detection and uses thereof” (CELERA CORPORATION, priority 2008, dated 2022)

Assay: Stroke statin response (SSR) in the CARE pravastatin trial: pravastatin-treated versus placebo-treated, by SNP genotype
Assay type: in vivo, human
Details: CARE; for HR: pravastatin vs placebo; for HR (hazard ratio for stroke, pravastatin vs placebo): rs10757274 (hCV26505812), placebo = ref; for EVENTS (number of stroke events): rs10757274, pravastatin arm; for EVENTS: stroke events in pravastatin arm

Work on `CC[C@H](C)C(=O)O[C@H]1C[C@H](O)C=C2C=C[C@H](C)[C@H](CC[C@@H](O)C[C@@H](O)CC(=O)O)[C@H]21` [pravastatin] yielded an HR (hCV945276 rs89962 KRT4, DOM, genotype TG + TT, 95% CL 0.48-1.027, p 0.0683) of 0.7, an HR (hCV945276 rs89962 KRT4, GEN, genotype GG, 95% CL 0.349-1.196, p 0.1641) of 0.65 and an HR (hCV945276 rs89962 KRT4, GEN, genotype TG, 95% CL 0.423-0.979, p 0.0397) of 0.64. It also gave an HR (hCV945276 rs89962 KRT4, GEN, genotype TT, 95% CL 0.392-2.375, p 0.9381) of 0.96, an HR (hCV945276 rs89962 KRT4, REC, genotype TG + GG, 95% CL 0.458-0.916, p 0.0141) of 0.65 and an HR (hCV1022614 rs220479 ITGAE, DOM, genotype CT + CC, 95% CL 0.541-1.024, p 0.0696) of 0.74. For the same compound, the HR (hCV1022614 rs220479 ITGAE, GEN, genotype CC, 95% CL 0.609-1.295, p 0.5366) was 0.89, the HR (hCV1022614 rs220479 ITGAE, GEN, genotype CT, 95% CL 0.257-0.887, p 0.0192) was 0.48 and the HR (hCV1022614 rs220479 ITGAE, GEN, genotype TT, 95% CL 0.203-4.047, p 0.8969) was 0.91. For the same compound, the HR (hCV1022614 rs220479 ITGAE, REC, genotype CT + TT, 95% CL 0.294-0.921, p 0.0248) was 0.52, the HR (hCV2091644 rs1010 VAMP8, DOM, genotype CT + CC, 95% CL 0.507-1.126, p 0.1678) was 0.76 and the HR (hCV2091644 rs1010 VAMP8, GEN, genotype CC, 95% CL 0.51-2.73, p 0.6997) was 1.18. For the same compound, the HR (hCV2091644 rs1010 VAMP8, GEN, genotype CT, 95% CL 0.418-1.045, p 0.0763) was 0.66, the HR (hCV2091644 rs1010 VAMP8, GEN, genotype TT, 95% CL 0.43-1.186, p 0.1928) was 0.71 and the HR (hCV2091644 rs1010 VAMP8, REC, genotype CT + TT, 95% CL 0.487-0.961, p 0.0284) was 0.68. It also gave an HR (hCV2169762 rs1804689 HPS1, DOM, genotype TG + TT, 95% CL 0.612-1.461, p 0.8004) of 0.95, an HR (hCV2169762 rs1804689 HPS1, GEN, genotype GG, 95% CL 0.372-0.924, p 0.0214) of 0.59 and an HR (hCV2169762 rs1804689 HPS1, GEN, genotype TG, 95% CL 0.583-1.468, p 0.7398) of 0.92. The HR (hCV2169762 rs1804689 HPS1, GEN, genotype TT, 95% CL 0.266-3.694, p 0.9903) was 0.99, the HR (hCV2169762 rs1804689 HPS1, REC, genotype TG + GG, 95% CL 0.529-1.006, p 0.0547) was 0.73 and the HR (hCV2192261 rs3213646 EXOD1, DOM, genotype CT + CC, 95% CL 0.506-1.048, p 0.0882) was 0.73. For the same compound, the HR (hCV2192261 rs3213646 EXOD1, GEN, genotype CC, 95% CL 0.613-1.799, p 0.8592) was 1.05, the HR (hCV2192261 rs3213646 EXOD1, GEN, genotype CT, 95% CL 0.328-0.898, p 0.0175) was 0.54 and the HR (hCV2192261 rs3213646 EXOD1, GEN, genotype TT, 95% CL 0.316-1.278, p 0.2036) was 0.64. The HR (hCV2192261 rs3213646 EXOD1, REC, genotype CT + TT, 95% CL 0.379-0.857, p 0.007) was 0.57, the HR (hCV7425232 rs3900940 MYH15, DOM, genotype CT + CC, 95% CL 0.468-1.102, p 0.1293) was 0.72 and the HR (hCV7425232 rs3900940 MYH15, GEN, genotype CC, 95% CL 0.461-2.296, p 0.9448) was 1.03. It also gave an HR (hCV7425232 rs3900940 MYH15, GEN, genotype CT, 95% CL 0.365-1.022, p 0.0604) of 0.61, an HR (hCV7425232 rs3900940 MYH15, GEN, genotype TT, 95% CL 0.442-1.146, p 0.1618) of 0.71 and an HR (hCV7425232 rs3900940 MYH15, REC, genotype CT + TT, 95% CL 0.467-0.939, p 0.0207) of 0.66. The HR (hCV11450563 rs2038366, DOM, genotype GT + GG, 95% CL 0.567-1.148, p 0.2334) was 0.81, the HR (hCV11450563 rs2038366, GEN, genotype GG, 95% CL 0.669-1.975, p 0.6132) was 1.15 and the HR (hCV11450563 rs2038366, GEN, genotype GT, 95% CL 0.381-0.986, p 0.0436) was 0.61. The HR (hCV11450563 rs2038366, GEN, genotype TT, 95% CL 0.472-2.724, p 0.7789) was 1.13, the HR (hCV11450563 rs2038366, REC, genotype GT + TT, 95% CL 0.463-1.064, p 0.0954) was 0.7 and the “HR (hazard ratio for stroke, pravastatin vs placebo)” value (adjusted (age, male, current smoking, hypertension, diabetes, BMI, baseline LDL, HDL), mode DOM, genotype GA + GG) was 0.73. For the same compound, the “HR (hazard ratio for stroke, pravastatin vs placebo)” value (adjusted (age, male, current smoking, hypertension, diabetes, BMI, baseline LDL, HDL), mode GEN, genotype GA) was 0.61, the “HR (hazard ratio for stroke, pravastatin vs placebo)” value (adjusted (age, male, current smoking, hypertension, diabetes, BMI, baseline LDL, HDL), mode GEN, genotype GG) was 1 and the “HR (hazard ratio for stroke, pravastatin vs placebo)” value (adjusted (age, male, current smoking, hypertension, diabetes, BMI, baseline LDL, HDL), mode REC, genotype GA + AA) was 0.69. For the same compound, the “HR (hazard ratio for stroke, pravastatin vs placebo)” value (unadjusted, mode DOM, genotype AG + AA) was 0.65, the “HR (hazard ratio for stroke, pravastatin vs placebo)” value (unadjusted, mode GEN, genotype AG) was 0.58 and the “HR (hazard ratio for stroke, pravastatin vs placebo)” value (unadjusted, mode GEN, genotype GG) was 0.91. The “HR (hazard ratio for stroke, pravastatin vs placebo)” value (unadjusted, mode REC, genotype AG + GG) was 0.69, the “EVENTS (number of stroke events)” value (adjusted analysis, mode DOM, genotype GA + GG, total 1131) was 54 and the “EVENTS (number of stroke events)” value (adjusted analysis, mode GEN, genotype AA, total 328) was 18. For the same compound, the “EVENTS (number of stroke events)” value (adjusted analysis, mode GEN, genotype GA, total 690) was 29, the “EVENTS (number of stroke events)” value (adjusted analysis, mode GEN, genotype GG, total 441) was 25 and the “EVENTS (number of stroke events)” value (unadjusted, mode DOM, genotype AG + AA, total 981) was 44. For the same compound, the “EVENTS (number of stroke events)” value (unadjusted, mode GEN, genotype AA, total 315) was 17, the “EVENTS (number of stroke events)” value (unadjusted, mode GEN, genotype AG, total 666) was 27 and the “EVENTS (number of stroke events)” value (unadjusted, mode GEN, genotype GG, total 414) was 23. For the same compound, the “EVENTS (number of stroke events)” value (unadjusted, mode REC, genotype AG + GG, total 1080) was 50, the EVENTS (rs1010 VAMP8, DOM, genotype CT + CC, TOTAL 957) was 43 and the EVENTS (rs1010 VAMP8, GEN, genotype CC, TOTAL 271) was 12. For the same compound, the EVENTS (rs1010 VAMP8, GEN, genotype CT, TOTAL 686) was 31, the EVENTS (rs1010 VAMP8, GEN, genotype TT, TOTAL 455) was 26 and the EVENTS (rs1010 VAMP8, REC, genotype CT + TT, TOTAL 1141) was 57. For the same compound, the EVENTS (rs89962 KRT4, DOM, genotype TG + TT, TOTAL 912) was 46, the EVENTS (rs89962 KRT4, GEN, genotype GG, TOTAL 443) was 17 and the EVENTS (rs89962 KRT4, GEN, genotype TG, TOTAL 674) was 37. The EVENTS (rs89962 KRT4, GEN, genotype TT, TOTAL 238) was 9, the EVENTS (rs89962 KRT4, REC, genotype TG + GG, TOTAL 1117) was 54 and the EVENTS (rs220479 ITGAE, DOM, genotype CT + CC, TOTAL 1381) was 67. The EVENTS (rs220479 ITGAE, GEN, genotype CC, TOTAL 973) was 52, the EVENTS (rs220479 ITGAE, GEN, genotype CT, TOTAL 408) was 15 and the EVENTS (rs220479 ITGAE, GEN, genotype TT, TOTAL 46) was 3. The EVENTS (rs220479 ITGAE, REC, genotype CT + TT, TOTAL 454) was 18, the EVENTS (rs1804689 HPS1, DOM, genotype TG + TT, TOTAL 759) was 40 and the EVENTS (rs1804689 HPS1, GEN, genotype GG, TOTAL 668) was 30. It also gave an EVENTS (rs1804689 HPS1, GEN, genotype TG, TOTAL 652) of 36, an EVENTS (rs1804689 HPS1, GEN, genotype TT, TOTAL 107) of 4 and an EVENTS (rs1804689 HPS1, REC, genotype TG + GG, TOTAL 1320) of 66. The EVENTS (rs2038366, DOM, genotype GT + GG, TOTAL 1177) was 57, the EVENTS (rs2038366, GEN, genotype GG, TOTAL 539) was 29 and the EVENTS (rs2038366, GEN, genotype GT, TOTAL 638) was 28. It also gave an EVENTS (rs2038366, GEN, genotype TT, TOTAL 151) of 10.
